{"source": "patent US6175001A", "about": "“Functionalized pyrimidine nucleosides and nucleotides and DNA's incorporating same” (The Scripps Research Institute, priority 1998, dated 2001)", "key": {"[1]": {"tested_on": "thermostable DNA polymerases (Taq, Vent, Pfu, rTh)", "assay": "PCR assays with modified dUTP in place of dTTP, panel of thermostable DNA polymerases", "type": "biochemical", "conditions": "for substrate for thermostable DNA polymerases in PCR: typical PCR conditions, analog in place of dTTP, all polymerases tested (Taq, Vent, Pfu, rTh), 519 base pair product; for incorporation of modified base in PCR under varied conditions: variation of Mg+2 (15 to 30 mM) and analog concentrations", "excerpt": "(§1) Commercially available thermostable DNA polymerases from […] organisms were studied; Taq from Thermus aquaticus, Vent from Thermococcus litoralis, Pfu from Pyrococcus furiosus, and rTh from Thermus thermophilus. […] Homogeneous incorporation of these derivatives in PCR is not possible due to chain termination, see 11c for discussion of derivatives in PCR: a) M. Shimkus, J. Levy, T. Herman, Proc. Natl. Acad. Sci. U.S.A. 1985, 82, 2593-7; b) B. L. Iverson, P. B. Dervan, J Am. Chem. Soc. 1987, 109, 1241-3. and ref. 10; c) H. Yu, J. Chao, D. Patek, R. Mujumdar, A. S. Waggoner, Nucleic Acids Res. 1994, 22, 3226-32. Successful PCR with this template requires incorporation of 246 modified bases including a single stretch of 8 contiguous thymidines.\n(§2) Compound 3 was derivatized with three different N-hydroxysuccinimide esters to prepare Compounds 4a-c (Scheme 2 FIG. 3). […] To test this structure-activity relationship, 4e-4g maintaining the a,b-unsaturated linker arm common to 4a, were also prepared (Scheme 2, FIG. 3). […] Compound 4g, with a free amino group, was used as a template for the synthesis of Compounds 4h and 4i."}, "[2]": {"target": "T1, rTh polymerase (Thermus thermophilus, UniProt P52028)", "T1 construct": "purchased", "assay": "PCR assay with modified dUTP in place of dTTP, rTh polymerase", "type": "biochemical", "conditions": "analog in place of dTTP, 519 base pair product", "excerpt": "as §1, §2"}, "[3]": {"target": "T2, Superscript II reverse transcriptase (Moloney murine leukemia virus, UniProt P03355, D1183G/D1242N/E1221Q)", "T2 construct": "Superscript II reverse transcriptase; purchased Gibco/BRL", "assay": "Reverse transcriptase template-directed extension assay", "type": "biochemical", "conditions": "0.4 mM analog; 0.2 mM dATP, dCTP, dGTP; 37 C", "description": "Reverse transcriptases may also be utilized in conjunction with PCR in in vitro selection schemes of DNA enzymes. […] The specificity of this reverse transcriptase is broader and not predictive of the structural requirements of the thermostable polymerases.\nReverse transcriptase assays: Template-directed extension was performed by addition of 10 pmol template DNA 5'-GCTAAAAAAGCTGCTAAAAAGCTGCTAAAAGCTGCTAAAGCTAAGCTAGCTCCCTTTAGTGAGGGTTAATTGC-3' (SEQ ID NO. 1) to 10 pmol primer DNA 5'-GCAATTAACCCTCACTAAAGGG-3' (SEQ ID NO 2) followed by Superscript II reverse transcriptase (Gibco, 200 units.(1^-1). The reaction (25 (I) contained 0.2 mM of dATP, dCTP, dGTP and 0.4 mM analog. Trace quantities of ((-^32 P(-dATP was included to allow the extension efficiency to be monitored. All components except reverse transcriptase were combined, incubated at 90° C. and cooled to 37° C. to anneal the primer. The enzyme (600 units) was added and the reaction mixture was incubated at 37 (C. The DNA was precipitated in ethanol and then dissolved in gel-loading buffer containing urea and heated for 3 min at 90° C. After separation on a 10% denaturing acrylarnide gel, the samples were further analyzed with a Phosphorimager."}, "[4]": {"tested_on": "thermostable DNA polymerase", "conditions": "Latham et al., Nucleic Acids Res. 1994; cited from earlier work"}}, "data": [{"smiles": "O=C(CCc1c[nH]cn1)NC/C=C/c1cn([C@H]2C[C@H](O)[C@@H](COP(=O)(O)OP(=O)(O)OP(=O)(O)O)O2)c(=O)[nH]c1=O", "note": "[Compound 4d]", "values": [{"measurement": "substrate for thermostable DNA polymerases in PCR", "setting": "[1]", "value": "No conditions could be defined with any of the polymerases that allowed for PCR"}]}, {"smiles": "NCC=Cc1cn([C@H]2C[C@H](O)[C@@H](COP(=O)(O)OP(=O)(O)OP(=O)(O)O)O2)c(=O)[nH]c1=O", "note": "[Compound 3, C-5(3-aminopropenyl)-2'-deoxvuridinetriphosphate]", "values": [{"measurement": "criteria for in vitro selection: substrate for thermostable polymerases and product serves as template for multiple cycles of PCR amplification", "setting": "[1]", "value": "criteria were met"}, {"measurement": "substrate for thermostable DNA polymerases in PCR", "setting": "[1]", "value": "acted as a substrate"}, {"measurement": "incorporation / substrate in PCR with rTh polymerase (only polymerase of the panel that accepts it)", "setting": "[2]", "value": "incorporation into the 519 base pair product only with rTh polymerase"}]}, {"smiles": "NCc1cccc(/C=C/C(=O)NC/C=C/c2cn([C@H]3C[C@H](O)[C@@H](COP(=O)(O)OP(=O)(O)OP(=O)(O)O)O3)c(=O)[nH]c2=O)c1", "note": "[Compound 4g]", "values": [{"measurement": "substrate for thermostable DNA polymerases in PCR", "setting": "[1]", "value": "robust substrate for PCR as compared to 3"}]}, {"smiles": "O=C(O)c1ccccc1-c1ccccc1C(=O)NCC=Cc1cn([C@H]2C[C@H](O)[C@@H](COP(=O)(O)OP(=O)(O)OP(=O)(O)O)O2)c(=O)[nH]c1=O", "note": "[Compound 4c]", "values": [{"measurement": "incorporation of modified base in PCR under varied conditions", "setting": "[1]", "value": "failed to define conditions that allowed for incorporation"}, {"measurement": "substrate of Superscript II reverse transcriptase in template directed synthesis", "setting": "[3]", "value": "all but 4c and 4h were substrates"}]}, {"smiles": "O=C(O)CCCC(=O)NCc1cccc(/C=C/C(=O)NC/C=C/c2cn([C@H]3C[C@H](O)[C@@H](COP(=O)(O)OP(=O)(O)OP(=O)(O)O)O3)c(=O)[nH]c2=O)c1", "note": "[Compound 4h]", "values": [{"measurement": "substrate for thermostable DNA polymerases in PCR", "setting": "[1]", "value": "good substrate for all thermostable polymerases tested"}, {"measurement": "substrate of Superscript II reverse transcriptase in template directed synthesis", "setting": "[3]", "value": "all but 4c and 4h were substrates"}]}, {"smiles": "O=C(/C=C/c1c[nH]cn1)NCC=Cc1cn([C@H]2C[C@H](O)[C@@H](COP(=O)(O)OP(=O)(O)OP(=O)(O)O)O2)c(=O)[nH]c1=O", "note": "[Compound 4a]", "values": [{"measurement": "criteria for in vitro selection: substrate for thermostable polymerases and product serves as template for multiple cycles of PCR amplification", "setting": "[1]", "value": "criteria were met"}, {"measurement": "substrate for thermostable DNA polymerases in PCR", "setting": "[1]", "value": "excellent substrate for all the polymerases tested"}]}, {"smiles": "CC(=O)N[C@@H](Cc1c[nH]cn1)C(=O)NCc1cccc(/C=C/C(=O)NC/C=C/c2cn([C@H]3C[C@H](O)[C@@H](COP(=O)(O)OP(=O)(O)OP(=O)(O)O)O3)c(=O)[nH]c2=O)c1", "note": "[Compound 4i]", "values": [{"measurement": "incorporation / substrate in PCR with rTh polymerase (only polymerase of the panel that accepts it)", "setting": "[2]", "value": "substrate only for rTh polymerase"}]}, {"smiles": "O=C(O)c1ccc(C(=O)NC/C=C/c2cn([C@H]3C[C@H](O)[C@@H](COP(=O)(O)OP(=O)(O)OP(=O)(O)O)O3)c(=O)[nH]c2=O)cc1", "note": "[Compound 4b]", "values": [{"measurement": "incorporation of modified base in PCR under varied conditions", "setting": "[1]", "value": "failed to define conditions that allowed for incorporation"}]}, {"smiles": "CCCC#Cc1cn([C@H]2C[C@H](O)[C@@H](COP(=O)(O)OP(=O)(O)OP(=O)(O)O)O2)c(=O)[nH]c1=O", "note": "[5-(1-pentynyl)-2' deoxyuridine triphosphate]", "values": [{"measurement": "substrate for a thermostable DNA polymerase", "setting": "[4]", "value": "good substrate"}]}]}
